The values below are quoted from earlier work in patent US20210046029A1, “LEVODOPA AND CARBIDOPA INTESTINAL GEL AND METHODS OF USE” (AbbVie Inc., priority 2015, published 2021).

This data set has as its target T1, peripheral dopa decarboxylase (Homo sapiens, UniProt P20711).
T1 construct: host or cells: endogenous enzyme of peripheral tissues in vivo
T1 sequence (P20711 1-480): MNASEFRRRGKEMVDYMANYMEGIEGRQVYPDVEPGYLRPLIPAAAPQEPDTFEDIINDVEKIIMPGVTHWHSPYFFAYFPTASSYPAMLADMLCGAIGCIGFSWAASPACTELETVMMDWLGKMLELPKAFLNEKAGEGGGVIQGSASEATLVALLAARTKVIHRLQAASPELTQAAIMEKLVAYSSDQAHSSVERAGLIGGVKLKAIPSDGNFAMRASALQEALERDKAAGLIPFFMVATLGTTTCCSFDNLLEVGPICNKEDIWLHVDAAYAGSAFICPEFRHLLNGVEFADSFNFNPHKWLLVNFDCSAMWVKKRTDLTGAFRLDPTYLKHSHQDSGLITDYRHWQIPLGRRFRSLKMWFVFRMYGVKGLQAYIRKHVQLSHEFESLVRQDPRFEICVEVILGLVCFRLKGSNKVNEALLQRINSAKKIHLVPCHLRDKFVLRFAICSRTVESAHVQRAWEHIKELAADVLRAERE
Conditions: in vivo.

Structures are written as SMILES.

On to `C[C@@](Cc1ccc(O)c(O)c1)(NN)C(=O)O` [carbidopa, (2S)-3-(3,4-dihydroxy-phenyl)-2-hydrazino-2-methylpropanoic acid], for which the “Carbidopa dose that saturates peripheral dopa decarboxylase” value was 70-100 mg a day.
